Measurements reported in patent EP1212395B1, “IMPROVED METHODS, COMPOSITIONS, AND ARTICLES FOR ODOR CONTROL” (THE PROCTER & GAMBLE COMPANY, priority 1999, dated 2001).
Where a name gives a salt, the structure may show the parent alone.

experiment: not given; details: in water; cited from earlier work

| Compound | solubility in water |
| --- | --- |
| OCCOc1ccccc1 [2-phenoxyethanol] | about 2.67% |
| OCCc1ccccc1 [2-phenylethanol] | about 2% |
| O=[N+]([O-])C1(Br)COCOC1 [Bronidox L, 5-bromo-5-nitro-1,3-dioxane] | about 0.46% |
| CC1(C)C(=O)N(CO)C(=O)N1CO [DMDM hydantoin, 1,3-bis(hydroxymethyl)-5,5-dimethyl-2,4-imidazolidinedione] | more than 50% |
| OCc1ccccc1 [benzyl alcohol] | about 4% |
| CC(C)(O)C(Cl)(Cl)Cl [chlorobutanol, 1,1,1-Trichloro-2-methylpropan-2-ol] | about 0.8% |
| [H]/N=C(\N/C(=N/[H])NCCCCCCNC(=N)NC(=N)Nc1ccc(Cl)cc1)Nc1ccc(Cl)cc1 [diacetate salt, 1,1'-hexamethylene bis(5-(p-chlorophenyl)biguanide), reference compound] | about 1.8% |
| [H]/N=C(\N/C(=N/[H])NCCCCCCNC(=N)NC(=N)Nc1ccc(Cl)cc1)Nc1ccc(Cl)cc1 [digluconate salt, 1,1'-hexamethylene bis(5-(p-chlorophenyl)biguanide), reference compound] | about 70% |
| [Na+].[O-][n+]1ccccc1[S-] [sodium pyrithione] | about 50% |

same assay, conditions: result in words; cited from earlier work

| Compound | solubility in water |
| --- | --- |
| ClC=CC[N+]12CN3CN(CN(C3)C1)C2.[Cl-] [Dowicil 200, 1-(3-Chlorallyl) -3,5,7-triaza-1-azoniaadamantane chloride] | freely soluble in water |

experiment: Elevation in surface tension of surfactant solution in the presence of cyclodextrin; type: physicochemical; details: in the presence of a typical cyclodextrin (about 1% solution)
From the text: Suitable cyclodextrin-compatible surfactants can be readily identified by the absence of effect of cyclodextrin on the surface tension provided by the surfactant. This is achieved by determining the surface tension (in dyne/cm) of aqueous solutions of the surfactant in the presence and in the absence of about 1% of a specific cyclodextrin in the solutions. The aqueous solutions contain surfactant at concentrations of approximately 0.5%, 0.1%, 0.01%, and 0.005%. The cyclodextrin can affect the surface activity of a surfactant by elevating the surface tension of the surfactant solution. If the surface tension at a given concentration in water differs by more than about 10% from the surface tension of the same surfactant in the 1% solution of the cyclodextrin, that is an indication of a strong interaction between the surfactant and the cyclodextrin. The preferred surfactants herein should have a surface tension in an aqueous solution that is different (lower) by less than about 10%, preferably less than about 5%, and more preferably less than about 1% from that of the same concentration solution containing 1% cyclodextrin.
The cyclodextrin-compatible surfactants described above are either weakly interactive with cyclodextrin (less than 5% elevation in surface tension), or non-interactive (less than 1% elevation in surface tension).

| Compound | elevation in surface tension [%] |
| --- | --- |
| CCCCCCCCCCCCOS(=O)(=O)[O-].[Na+] [sodium dodecyl sulfate] | > 10 |
| dodecanolpoly(6)ethoxylate | > 10 |

experiment: not given; details: cited from earlier work

| Compound | stability over a wide pH range |
| --- | --- |
| Cn1sc2c(c1=O)CCC2 [Promexal, 2-methyl-4,5-trimethylene-4-isothiazolin-3-one] | 4-12 |
| O=c1[nH]sc2ccccc12 [Proxel, 1,2-benzisothiazolin-3-one] | 4-12 |

experiment: Interaction of perfume components with cyclodextrin (CD); type: physicochemical; details: perfume component with cyclodextrin
From the text: The following table illustrates the molecular weight property of some of the preferred perfume versus non-preferred perfume components.
Examples of Perfume Components for CD Interaction

| Compound | CD interaction |
| --- | --- |
| CC(C=O)Cc1ccc(C(C)C)cc1 (centres unmarked) [Cymal] | strong |
| CCOC(=O)c1ccccc1C(=O)OCC [Diethyl Phthalate] | weak |
| CC(=O)OC1CC2CC1C1CC=CC21 (centres unmarked) [Flor Acetate] | strong |
| CCC(=O)OC1CC2CC1C1CC=CC21 (centres unmarked) [Frutene] | strong |
| CC1COCc2cc3c(cc21)C(C)(C)C(C)C3(C)C (centres unmarked) [Galaxolide] | weak |
| CCCCCCOC(=O)c1ccccc1O [Hexyl Salicylate] | weak |
| CCCCCCC(C=O)=Cc1ccccc1 [Hexyl cinnamic Aldehyde] | weak |
| CC(=O)C1(C)CC2=C(CCCC2(C)C)CC1C (centres unmarked) [Iso-E Super] | weak |
| CCCCCCCCCCCCCC(=O)OC(C)C [Iso-propyl Myristate] | weak |
| CC(=O)C(C)=C(C)C(C)C(C)(C)C (centres unmarked) [Koavone] | strong |
| CC(C=O)Cc1ccc(C(C)(C)C)cc1 (centres unmarked) [Lilial, Lilial (p-t-bucinal)] | strong |
| CC(C)(O)CCCC1=CCC(C=O)CC1 (centres unmarked) [Lyral] | weak |
| CCCCCC1C(=O)CCC1CC(=O)OC (centres unmarked) [Methyl Dihydro Jasmonate] | weak |
| O=C(Cc1ccccc1)OCCc1ccccc1 [Phenyl-Ethyl-Phenyl Acetate] | weak |
| CC(=O)OC(C)(C)C1CC=C(C)CC1 (centres unmarked) [Terpinyl Acetate] | significant |
| CC(=O)OC1CCC(C(C)(C)C)CC1 (centres unmarked) [Vertenex, para-tert-butylcyclohexyl acetate] | strong |
| CC(=O)/C=C/C1C(C)=CCCC1(C)C (centres unmarked) [a-ionone] | strong |
| a-Me Ionone | strong |
